Experimental data from the NIST ThermoML archive (doi:10.1021/je4001697).

Settings: Liquid, Pulse-echo method

Cc1ccccc1 [toluene]
Settings | speed of sound [m/s]
240 K, 103.32 kPa | 1571
240 K, 1104.2 kPa | 1575
240 K, 2104.9 kPa | 1578.9
240 K, 3105.7 kPa | 1582.8
240 K, 4106.3 kPa | 1586.7
240 K, 5107.4 kPa | 1590.5
240 K, 6107.7 kPa | 1594.3
240 K, 7108.4 kPa | 1598.1
240 K, 8109.1 kPa | 1601.9
240 K, 9109.8 kPa | 1605.7
240 K, 10110 kPa | 1609.4
240 K, 12612 kPa | 1618.6
240 K, 15114 kPa | 1627.7
240 K, 17616 kPa | 1636.7
240 K, 20117 kPa | 1645.6
240 K, 25121 kPa | 1663
240 K, 30124 kPa | 1680
240 K, 35127 kPa | 1696.5
240 K, 40131 kPa | 1712.7
240 K, 45134 kPa | 1728.5
240 K, 50138 kPa | 1744
240 K, 60144 kPa | 1774
240 K, 70151 kPa | 1802.9
240 K, 80158 kPa | 1830.7
240 K, 90165 kPa | 1857.6
240 K, 100172 kPa | 1883.6
260 K, 102.53 kPa | 1476.8
260 K, 1103.4 kPa | 1481.1
260 K, 2104 kPa | 1485.4
260 K, 3104.8 kPa | 1489.7
260 K, 4105.6 kPa | 1493.9
260 K, 5106.5 kPa | 1498.1
260 K, 6106.8 kPa | 1502.3
260 K, 7107.5 kPa | 1506.5
260 K, 8108.3 kPa | 1510.6
260 K, 9109 kPa | 1514.7
260 K, 10110 kPa | 1518.8
260 K, 12612 kPa | 1528.8
260 K, 15114 kPa | 1538.7
260 K, 17615 kPa | 1548.5
260 K, 20117 kPa | 1558.1
260 K, 25121 kPa | 1576.9
260 K, 30124 kPa | 1595.2
260 K, 35128 kPa | 1613
260 K, 40131 kPa | 1630.4
260 K, 45134 kPa | 1647.3
260 K, 50138 kPa | 1663.9
260 K, 60145 kPa | 1695.8
260 K, 70152 kPa | 1726.5
260 K, 80160 kPa | 1756
260 K, 90166 kPa | 1784.3
260 K, 100174 kPa | 1811.7
280 K, 103.62 kPa | 1385.5
280 K, 1104.5 kPa | 1390.2
280 K, 2105.3 kPa | 1395
280 K, 3106.2 kPa | 1399.7
280 K, 4107.1 kPa | 1404.3
280 K, 5107.6 kPa | 1408.9
280 K, 6108.1 kPa | 1413.5
280 K, 7108.8 kPa | 1418
280 K, 8109.4 kPa | 1422.5
280 K, 9110.1 kPa | 1427
280 K, 10111 kPa | 1431.5
280 K, 12612 kPa | 1442.4
280 K, 15114 kPa | 1453.2
280 K, 17616 kPa | 1463.8
280 K, 20118 kPa | 1474.2
280 K, 25122 kPa | 1494.5
280 K, 30125 kPa | 1514.2
280 K, 35128 kPa | 1533.3
280 K, 40132 kPa | 1551.9
280 K, 45135 kPa | 1570
280 K, 50138 kPa | 1587.6
280 K, 60145 kPa | 1621.5
280 K, 70152 kPa | 1654
280 K, 80159 kPa | 1685.1
280 K, 90166 kPa | 1714.9
280 K, 100173 kPa | 1743.7
300 K, 102.33 kPa | 1297.2
300 K, 103.33 kPa | 1297.1
300 K, 1103.2 kPa | 1302.4
300 K, 2104.1 kPa | 1307.6
300 K, 3104.7 kPa | 1312.7
300.01 K, 1104.2 kPa | 1302.4
300.01 K, 2104.9 kPa | 1307.6
300.01 K, 3105.6 kPa | 1312.7
300.01 K, 4106.4 kPa | 1317.8
300.01 K, 5107 kPa | 1322.9
300.01 K, 6107.4 kPa | 1327.9
300.01 K, 7108.1 kPa | 1332.8
300.01 K, 8108.7 kPa | 1337.8
300.01 K, 9109.4 kPa | 1342.6
300.01 K, 10110 kPa | 1347.5
300.01 K, 12612 kPa | 1359.4
300.01 K, 15113 kPa | 1371.1
300.01 K, 17615 kPa | 1382.5
300.01 K, 20117 kPa | 1393.8
300.01 K, 25120 kPa | 1415.7
300.01 K, 30124 kPa | 1436.8
300.01 K, 35127 kPa | 1457.3
300.01 K, 40130 kPa | 1477.1
300.01 K, 45133 kPa | 1496.4
300.01 K, 50136 kPa | 1515.1
300.01 K, 60143 kPa | 1551.1
300.01 K, 70150 kPa | 1585.4
300.01 K, 80158 kPa | 1618.1
300.01 K, 90166 kPa | 1649.4
300.01 K, 100172 kPa | 1679.5
320 K, 102.82 kPa | 1211.6
320 K, 102.83 kPa | 1211.6
320 K, 1103.6 kPa | 1217.3
320 K, 2104.3 kPa | 1223.1
320 K, 3105 kPa | 1228.7
320 K, 4105.8 kPa | 1234.3
320 K, 5106.6 kPa | 1239.9
320 K, 6107.1 kPa | 1245.4
320 K, 7107.8 kPa | 1250.8
320 K, 8108.5 kPa | 1256.2
320 K, 9109.2 kPa | 1261.5
320 K, 10110 kPa | 1266.8
320 K, 12612 kPa | 1279.7
320 K, 15113 kPa | 1292.4
320 K, 17615 kPa | 1304.8
320 K, 20117 kPa | 1317
320 K, 25120 kPa | 1340.5
320 K, 30124 kPa | 1363.2
320 K, 35127 kPa | 1385.1
320 K, 40131 kPa | 1406.2
320 K, 45134 kPa | 1426.7
320 K, 50138 kPa | 1446.5
320 K, 60145 kPa | 1484.5
320 K, 70152 kPa | 1520.6
320 K, 80159 kPa | 1554.9
320 K, 90166 kPa | 1587.7
320 K, 100173 kPa | 1619.1
340 K, 102.94 kPa | 1128.5
